The text below walks through data of US20220241314A1, “COMPOSITIONS AND METHODS FOR TREATMENT OF HEPATITIS B VIRUS INFECTION” (priority 2019, published 2022).

Like-named read-outs stand apart in the source and are kept apart here. {ppp} = triphosphate

The test system of data set [1] is HBV cccDNA. The data set can be described thus: HBV cccDNA formation in infected differentiated HepaRG cells (Southern blot, RT-qPCR). In kind it is cell-based, HBV (Genotype D). To be noted: HBV 1000 Geq/cell, harvested 3 dpi; for IC50: read-out: IC50, decline of cccDNA relative to DMSO treated controls; for IC90: read-out: IC90, decline of cccDNA relative to DMSO treated controls. On the procedure: The scheme illustrates the schedule with HBV inoculum (1000 Geq/cell) and administration of Cyclosporin A (CsA), F7, X-RNA and poly-U/UC PAMP. 2.5% DMSO was added to the medium at 1 day post infection (Dpi). cccDNA and PF RC DNA were harvested from HepG2-hNTCP cells using Hirt extraction method and analyzed by Southern blot analysis using an HBV-specific DNA probe. Viral protein-free DNAs (protein-free Relaxed Circular DNA [PF-RC DNA] and cccDNA) are noted. (2B and 2C) HepG2-hNTCP 2(B) or differentiated HepaRG cells (2C) were infected with HBV at moi of 1000 Geq/cell, and administered CsA (10 μM) or F7, in the indicated concentrations. For upper panels of (2B) and (2C), DNAs were isolated after Hirt extraction at 3 dpi and subjected to Southern blot analysis using as HBV-DNA probe. […] (2D and 2E) HepG2-hNTCP (2D) or dHepaRG cells (2E) were infected with HBV at an moi of 1000 Geq/cell, and administered CsA (10 μM), X-RNA (100 ng/ml), or poly-U/UC PAMP in the indicated concentrations. For upper panels of (2D) and (2E), DNAs were analyzed using Southern blot analysis. For lower panels of (2D) and (2E), DNAs were analyzed by RT-qPCR. IC90, and IC50 values were calculated based on the decline of the cccDNA relative to DMSO treated controls. IC90, and IC50 values are the average of three experiments±one standard deviation. […] Positions of mass markers are indicated on each Southern blot.
HBV infection HBV (Genotype D) was purified from the supernatant of HepAD38 cells by PEG concentration and subsequent sucrose gradient, as described previously (Ko, C., et al. (2014). DDX3 DEAD-Box RNA Helicase Is a Host Factor That Restricts Hepatitis B Virus Replication at the Transcriptional Level. Journal of Virology 88, 13689-13698; Watashi, K., et al. (2013), supra). For HBV infection cells were seeded into collagen-coated plates. One day later, the cells were infected with HBV in DMEM containing 4% polyethylene glycol 8000 (PEG-8000). The multiplicities of infection (expressed as virus genome equivalent/cell) are indicated in each Figure Legend. The inocula were removed 24 hours later, and the infected cultures were maintained in complete DMEM containing 2.5% DMSO until harvesting, as described previously (Ni, Y., et al. (2014). Hepatitis B and D viruses exploit sodium taurocholate co-transporting polypeptide for species-specific entry into hepatocytes. Gastroenterology 146, 1070-1083).
Reverse transcription quantitative real time qPCR (RT-qPCR) analysis: Total cellular RNAs were extracted from cells using TRIZOL reagent and the manufacturers protocol (Invitrogen). cDNA was synthesized from the purified RNA by both random and oligo (dT) priming using iScript select cDNA synthesis kit (Biorad, Inc.). […]
(In general: Real-time PCR tracks product formation cycle by cycle.)

Data set [2] deals with HBV cccDNA. The data set can be described thus: cccDNA levels in HBV-infected RIG-I or MDA5 knockout HepG2-hNTCP cells (Southern blot). Conditions: HepG2-hNTCP-NT and HepG2-hNTCP-MKO cells, single treatment at 1 dpi, harvested 3 dpi. It is filed as cell-based, HBV (Genotype D). The procedure:
FIGS. 6A-6D illustrate that F7 and poly-U/UC PAMP specifically signal IRF3 activation through RIG-I to suppress HBV cccDNA. (6A) F7 was administered for 24 hours to HepG2-hNTCP-NT (expressing non-targeting guide RNA), RKO (RIG-I knockout expressing RIG-I-targeting guide RNA), and MKO (MDA5-knock out expressing MDA5-targeting guide RNA). Cells were harvested and analyzed by immunoblot. The levels of protein expression by p-IRF3 (S386 phosphorylated, active IRF3), IRF3 (total IRF), IFIT1, RIG-I, and MDA5 relative to the expression level of tubulin were determined using respective antibodies. (6B) HepG2-hNTCP-NT, RKO, and MKO cells were treated with 100 ng,/ml of X-RNA or 100 ng/ml or 200 ng/ml of poly-U/UC PAMP for 24 hr. Cells were harvested and analyzed by immunoblot as in (6A). (6C and 6D) Cells were infected with HBV at moi of 1000 Geq/cell. After 24 hour cultures were treated with DMSO (−; negative control), CsA (treatment control), (6C) 10 μM) or F7 or (6D) X RNA or poly-U/UC PAMP. Three days later the cells were harvested, Hirt extracts prepared and subjected to Southern blot analysis using as HBV-DNA probe. The positions of mass markers are indicated. Values beneath each lane show percent cccDNA remaining compared to control treatment. […]

[3] abbreviates: Hepatitis B virus, differentiated HepaRG cells.

By IC50 is commonly meant the concentration needed to halve the response being measured. For orientation: IC90 means the point of the concentration-response curve where the effect stands at 90%. Turning to `O=C(Nc1ccc2nc(NC(=O)c3ccc4ccccc4c3)sc2c1)c1ccccc1` [F7, N-(6-benzamido-1,3-benzothiazol-2-yl)naphthalene-2-carboxamide], in the data set on HBV cccDNA [1] (setting [3]), the IC50 was around 3380 nM and the IC90 is around 12800 nM. The cccDNA levels entry in the data set on HBV cccDNA [2] is reported as “reduced cccDNA levels”.

B1: poly-U/UC PAMP: ~100 nt PAMP motif from the HCV genome comprising 5′ppp and the poly U/UC region, recognized by RIG-I; formulated in liposome (nucleic acid)
chain: GGCCAUCCUGUUUUUUUCCCUUUUUUUUUUUCUUUUUUUUUUUUUUUUUUUUUUUUUUUUUUUUUUCUCCUUUUUUUUUCCUCUUUUUUUCCUUUUCUUUCCUUU
modifications: RNA, 5' {ppp}, backbone and methylation of C not given here; formulated in liposome
notes: ~100 nt PAMP motif from the HCV genome comprising 5′ppp and the poly U/UC region, recognized by RIG-I; formulated in liposome
B1: in the data set on HBV cccDNA [1] (dHepaRG cells), the IC50 was around 1.61 nM and the IC90 is around 3.3 nM. The cccDNA levels result in the data set on HBV cccDNA [2] is “cccDNA was suppressed”.
